The assay concerns the target Thymidine phosphorylase (Escherichia coli O45:K1 (strain S88 / ExPEC), UniProt B7MNI9). As to the kind of experiment: Thymidine Phosphorylase Assay. Particulars: pH 7.4; 25 °C. How it is done: The Thymidine phosphorylase/PD-ECGF (E. coli) activity was determined by measuring the absorbance at 290 nm spectrophotometrically. In brief, total reaction mixture of 200 uL contained 145 uL of potassium phosphate buffer (pH 7.4), 30 uL of enzyme (E. coli) at concentration 0.05 and 0.002 U, respectively, were incubated with 5 uL of test materials for 10 min at 25 °C in microplate reader. After incubation, preread at 290 nm was taken to deduce the absorbance of substrate particles. Substrate (20 uL, 1.5 mM), was dissolved in potassium phosphate buffer, was immediately added to plate and continuously read after 10, 20, and 30 min in microplate reader (spectra max, molecular devices, CA, USA). All assays were performed in triplicate.

Chain of Thymidine phosphorylase (B7MNI9 whole entry): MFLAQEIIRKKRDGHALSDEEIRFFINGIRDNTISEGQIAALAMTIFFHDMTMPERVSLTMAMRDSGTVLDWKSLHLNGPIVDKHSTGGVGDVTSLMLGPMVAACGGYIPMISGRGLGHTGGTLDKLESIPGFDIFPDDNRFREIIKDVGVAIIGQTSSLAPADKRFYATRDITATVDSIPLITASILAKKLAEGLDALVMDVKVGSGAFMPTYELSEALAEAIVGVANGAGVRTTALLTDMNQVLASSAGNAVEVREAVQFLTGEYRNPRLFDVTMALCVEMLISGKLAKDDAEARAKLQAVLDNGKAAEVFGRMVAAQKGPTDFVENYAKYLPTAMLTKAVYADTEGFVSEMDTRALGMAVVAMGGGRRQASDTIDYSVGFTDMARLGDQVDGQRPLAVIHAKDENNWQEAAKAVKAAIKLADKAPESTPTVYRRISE

`O=c1[nH]c(=O)c2cc[nH]c2[nH]1` [1,7-Dihydro-pyrrolo[2,3-d]pyrimidine-2,4-dione] returned an IC50 of 38.7 µM. In the case of `Clc1ccccc1/C=N/Nc1cnc2ccccc2n1` [(E)-2-(2-(2-chlorobenzylidene)hydrazinyl)quinoxaline (4)], the IC50 was determined as 37.6 µM. `Fc1ccccc1/C=N/Nc1cnc2ccccc2n1` [(E)-2-(2-(2-fluorobenzylidene)hydrazinyl)quinoxaline (1)] came in with an IC50 of 33.6 µM. The compound `Clc1cccc(/C=N/Nc2cnc3ccccc3n2)c1` [(E)-2-(2-(3-chlorobenzylidene)hydrazinyl)quinoxaline (5)] had a half-maximal inhibitory concentration (IC50) of 93.5 µM. In the case of `Fc1cccc(/C=N/Nc2cnc3ccccc3n2)c1` [(E)-2-(2-(3-fluorobenzylidene)hydrazinyl)quinoxaline (2)], half-maximal inhibition (IC50) required 66.1 µM. With `Fc1ccc(/C=N/Nc2cnc3ccccc3n2)cc1` [(E)-2-(2-(4-fluorobenzylidene)hydrazinyl)quinoxaline (3)], the IC50 is 58.1 µM. `C(=N\Nc1cnc2ccccc2n1)/c1c[nH]c2ccccc12` [(E)-2-(2-((1H-indol-3-yl)methylene)hydrazinyl)quinoxaline (27)] gave an IC50 of 84.3 µM. This IC50 and that of the compound before are within 1.5-fold of each other.

Consider `Oc1ccc(O)c(/C=N/Nc2cnc3ccccc3n2)c1` [(E)-2-((2-(quinoxalin-2-yl)hydrazono)methyl)benzene-1,4-diol (16)], for which the IC50 was 35.5 µM. Take `Oc1ccccc1/C=N/Nc1cnc2ccccc2n1` [(E)-2-((2-(quinoxalin-2-yl)hydrazono)methyl)phenol (28)]: the half-maximal inhibitory concentration (IC50) was 37.2 µM. The IC50 values of the last two compounds are within 1.5-fold of each other. With `COc1ccc(/C=N/Nc2cnc3ccccc3n2)cc1O` [(E)-2-methoxy-5-((2-(quinoxalin-2-yl)hydrazono)methyl)phenol (21)], the IC50 was determined as 46.9 µM. In turn, `Oc1cccc(/C=N/Nc2cnc3ccccc3n2)c1O` [(E)-3-((2-(quinoxalin-2-yl)hydrazono)methyl)benzene-1,2-diol (14)] yielded an IC50 of 15.4 µM. Against the preceding compound, the IC50 is about 3-fold lower.

Regarding `Oc1cccc(/C=N/Nc2cnc3ccccc3n2)c1` [(E)-3-((2-(quinoxalin-2-yl)hydrazono)methyl)phenol (12)], half-maximal inhibition (IC50) was put at 63.2 µM. Take `Oc1ccc(/C=N/Nc2cnc3ccccc3n2)cc1O` [(E)-4-((2-(quinoxalin-2-yl)hydrazono)methyl)benzene-1,2-diol (17)]: the IC50 is 8.6 µM. On to `Oc1ccc(/C=N/Nc2cnc3ccccc3n2)c(O)c1` [(E)-4-((2-(quinoxalin-2-yl)hydrazono)methyl)benzene-1,3-diol (15)], for which the IC50 stood at 33.4 µM. This IC50 is about 3.9-fold higher than that of the compound before. `Oc1ccc(/C=N/Nc2cnc3ccccc3n2)cc1` [(E)-4-((2-(quinoxalin-2-yl)hydrazono)methyl)phenol (13)]: the IC50 is 48.6 µM. The IC50 values of the last two compounds are within 1.5-fold of each other. In turn, `COc1ccc(O)c(/C=N/Nc2cnc3ccccc3n2)c1` [(E)-4-methoxy-2-((2-(quinoxalin-2-yl)hydrazono)methyl)phenol (24)] had an IC50 of 36.3 µM. The compound `Oc1cc(O)c(/C=N/Nc2cnc3ccccc3n2)cc1O` [(E)-5-((2-(quinoxalin-2-yl)hydrazono)methyl)benzene-1,2,4-triol (18)] came in with an IC50 of 3.2 µM. Against the preceding compound, the IC50 is about 11-fold lower.

Consider `Oc1cc(O)c(/C=N/Nc2cnc3ccccc3n2)c(O)c1` [(E)-5-((2-(quinoxalin-2-yl)hydrazono)methyl)benzene-2,4,6-triol (19)], for which the IC50 is 9.1 µM. For the compound `COc1ccc(/C=N/Nc2cnc3ccccc3n2)c(O)c1` [(E)-5-methoxy-2-((2-(quinoxalin-2-yl)hydrazono)methyl)phenol (20)], the IC50 is 34.4 µM.

One may read the IC50 as the midpoint of a concentration-inhibition curve. The low end stands for inhibition by little substance, the high end for a need for much substance.
